Biological target: T1, sodium/calcium exchanger (Rattus norvegicus, UniProt Q01728)
T1 construct: The heart of the rat was excised and perfused with Krebs buffer solution; from tissue; host or cells: isolated Langendorff-perfused rat heart
Test: Langendorff-perfused rat heart, monensin treatment plus ischemia/reperfusion: ventricular total calcium content and recovery in contractile tension
Conditions: for Calcium Content: isolated rat heart, monensin 5 μM 10 min, ischemia 15 min, reperfusion 30 min; for effect on decreased recovery in contractile tension (in words) / effect on increased ventricular calcium content (in words): monensin treatment and ischemia/reperfusion, rat heart
Procedure: The heart of the rat was excised and perfused with Krebs buffer solution (in mM: NaCl 119, KCl 4.6, MgSO4.7H2O 1.2, CaCl2.2H2O 1.3, NaHCO3 25, KH2PO4 1.2, glucose 11; pH 7.4, 37° C.) according to Langendorff method. A thread attached to the apex of the heart was connected to a tension transducer to determine contractile tension. The heart was perfused with a perfusion solution containing monensin (5 μ M; sodium ionophore) for 10 min and then ischemia was induced by a cessation of coronary flow (for 15 min). After reperfusion for 30 min, the heart was liquefied in nitric acid, and ventricular total calcium content was determined by atomic absorption analysis. Contractile tension was measured during the experiment, and recovery in contractile tension at 30 min of reperfusion related to its pre-value was used as an index of cardiac contraction.

Structure (SMILES) | Calcium Content (10^−3 M) | Calcium Content (10^−4 M) | effect on decreased recovery in contractile tension (in words) | effect on increased ventricular calcium content (in words) | Calcium Content (10^−6 M) | Calcium Content (10^−7 M) | effect on increased ventricular calcium content (in words) (listed as The medicament of the present invention, monohydrate) | effect on increased ventricular calcium content (in words) (listed as the medicament of the present invention, monohydrate) | Calcium Content (10^−5 M)
N=C(N)NC(=O)c1nc(Cl)c(N)nc1N [Amiloride] | 4.26 ± 0.40 µmol/g | 5.30 ± 0.25 µmol/g | failed to exhibit these effects | failed to exhibit these effects |  |  |  |  | 
Cc1ccc(N2CCNCC2)c(S(=O)(=O)O)c1.O [Compound of the Present Invention, 5-methyl-2-(1-piperazinyl)benzenesulfonic acid monohydrate] |  |  | improved |  | 2.72 ± 0.18 µmol/g | 3.72 ± 0.16 µmol/g | improved | effective in reducing increase in ventricular calcium content | 
COc1ccc([C@@H]2Sc3ccccc3N(CCN(C)C)C(=O)[C@@H]2OC(C)=O)cc1 [Diltiazem] |  |  | failed to exhibit these effects | failed to exhibit these effects | 5.75 ± 0.16 µmol/g |  |  |  | 5.89 ± 0.22 µmol/g
